Results published in patent publication US20210220300A1 (Strongbridge Dublin Limited, priority 2019, published 2021).
Like-named read-outs stand apart in the source and are kept apart here.

How the values were obtained:
MATE1 = target: T1, MATE1 (Homo sapiens, UniProt Q96FL8); conditions: pH 8.5
T1 sequence (Q96FL8 1-570): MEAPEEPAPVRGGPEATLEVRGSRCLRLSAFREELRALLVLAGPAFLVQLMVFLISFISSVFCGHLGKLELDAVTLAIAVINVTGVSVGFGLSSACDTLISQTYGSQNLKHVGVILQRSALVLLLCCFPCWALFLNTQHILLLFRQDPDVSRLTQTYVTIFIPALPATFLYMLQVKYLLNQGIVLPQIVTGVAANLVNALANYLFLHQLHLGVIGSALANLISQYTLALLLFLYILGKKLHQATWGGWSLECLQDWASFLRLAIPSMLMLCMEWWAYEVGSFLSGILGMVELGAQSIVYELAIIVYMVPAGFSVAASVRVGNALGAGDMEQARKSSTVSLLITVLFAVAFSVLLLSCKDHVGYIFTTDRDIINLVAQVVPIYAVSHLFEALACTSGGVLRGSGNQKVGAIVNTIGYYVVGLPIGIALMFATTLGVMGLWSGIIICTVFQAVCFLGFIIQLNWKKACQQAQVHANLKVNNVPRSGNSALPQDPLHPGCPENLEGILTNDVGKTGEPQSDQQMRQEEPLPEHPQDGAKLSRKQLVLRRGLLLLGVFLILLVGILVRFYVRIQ
Protocol: (§1) [^14C]-Metformin (1 mM) was provided as a solid and was prepared in Hank's balanced salt solution (HBSS).
(§2) Cells were plated onto standard 24-well tissue culture plates in cell culture medium 1 to 3 days before the experiment. MATE1 and MATE2-K and control cells were incubated with butyric acid (10 mM) for 24 hours before the experiment to inhibit suppression of the transporter.

MATE2-K = MATE2-K (Homo sapiens, UniProt Q86VL8); conditions: pH 8.5
Protocol: as §1, §2

OCT1 = target: T2, OCT1 (Homo sapiens, UniProt O15245); conditions: for Uptake (Average ± SD), Control / Uptake (Average ± SD), OCT1 / Background corrected uptake rate: human, pH 7.4
T2 sequence (O15245 1-554): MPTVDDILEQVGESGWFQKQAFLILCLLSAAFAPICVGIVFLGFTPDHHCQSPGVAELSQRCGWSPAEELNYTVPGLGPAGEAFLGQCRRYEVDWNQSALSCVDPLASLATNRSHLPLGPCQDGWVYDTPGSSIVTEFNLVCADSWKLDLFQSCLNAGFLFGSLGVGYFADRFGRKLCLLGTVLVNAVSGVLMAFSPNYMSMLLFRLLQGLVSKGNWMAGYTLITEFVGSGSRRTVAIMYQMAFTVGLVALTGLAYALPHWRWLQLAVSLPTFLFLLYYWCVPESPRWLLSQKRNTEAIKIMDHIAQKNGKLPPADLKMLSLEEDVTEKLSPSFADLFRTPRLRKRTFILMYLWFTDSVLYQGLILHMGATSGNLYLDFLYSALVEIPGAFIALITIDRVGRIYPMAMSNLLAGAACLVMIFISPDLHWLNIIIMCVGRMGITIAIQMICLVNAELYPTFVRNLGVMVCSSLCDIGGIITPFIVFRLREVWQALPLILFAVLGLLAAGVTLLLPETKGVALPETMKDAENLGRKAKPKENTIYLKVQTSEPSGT
Protocol: as §1, §2

BCRP = BCRP inhibition: bidirectional transport of prazosin across MDCKII BCRP and control cells; conditions: for % control: corrected efflux ratio, prazosin 1 μM
Description: MDCKII P-gp, MDCKII BCRP and control MDCKII cells were purchased from the Netherlands Cancer Institute.

[1] = cited from earlier work
P-gp [2] = target: T3, P-gp (Homo sapiens, UniProt P08183)
[3] = cited from earlier work; remark: listed apart in the source
P-gp [4] = target: T3, P-gp; test: P-gp inhibition: bidirectional transport of digoxin across Caco-2 cells

T3 sequence (P08183 whole entry): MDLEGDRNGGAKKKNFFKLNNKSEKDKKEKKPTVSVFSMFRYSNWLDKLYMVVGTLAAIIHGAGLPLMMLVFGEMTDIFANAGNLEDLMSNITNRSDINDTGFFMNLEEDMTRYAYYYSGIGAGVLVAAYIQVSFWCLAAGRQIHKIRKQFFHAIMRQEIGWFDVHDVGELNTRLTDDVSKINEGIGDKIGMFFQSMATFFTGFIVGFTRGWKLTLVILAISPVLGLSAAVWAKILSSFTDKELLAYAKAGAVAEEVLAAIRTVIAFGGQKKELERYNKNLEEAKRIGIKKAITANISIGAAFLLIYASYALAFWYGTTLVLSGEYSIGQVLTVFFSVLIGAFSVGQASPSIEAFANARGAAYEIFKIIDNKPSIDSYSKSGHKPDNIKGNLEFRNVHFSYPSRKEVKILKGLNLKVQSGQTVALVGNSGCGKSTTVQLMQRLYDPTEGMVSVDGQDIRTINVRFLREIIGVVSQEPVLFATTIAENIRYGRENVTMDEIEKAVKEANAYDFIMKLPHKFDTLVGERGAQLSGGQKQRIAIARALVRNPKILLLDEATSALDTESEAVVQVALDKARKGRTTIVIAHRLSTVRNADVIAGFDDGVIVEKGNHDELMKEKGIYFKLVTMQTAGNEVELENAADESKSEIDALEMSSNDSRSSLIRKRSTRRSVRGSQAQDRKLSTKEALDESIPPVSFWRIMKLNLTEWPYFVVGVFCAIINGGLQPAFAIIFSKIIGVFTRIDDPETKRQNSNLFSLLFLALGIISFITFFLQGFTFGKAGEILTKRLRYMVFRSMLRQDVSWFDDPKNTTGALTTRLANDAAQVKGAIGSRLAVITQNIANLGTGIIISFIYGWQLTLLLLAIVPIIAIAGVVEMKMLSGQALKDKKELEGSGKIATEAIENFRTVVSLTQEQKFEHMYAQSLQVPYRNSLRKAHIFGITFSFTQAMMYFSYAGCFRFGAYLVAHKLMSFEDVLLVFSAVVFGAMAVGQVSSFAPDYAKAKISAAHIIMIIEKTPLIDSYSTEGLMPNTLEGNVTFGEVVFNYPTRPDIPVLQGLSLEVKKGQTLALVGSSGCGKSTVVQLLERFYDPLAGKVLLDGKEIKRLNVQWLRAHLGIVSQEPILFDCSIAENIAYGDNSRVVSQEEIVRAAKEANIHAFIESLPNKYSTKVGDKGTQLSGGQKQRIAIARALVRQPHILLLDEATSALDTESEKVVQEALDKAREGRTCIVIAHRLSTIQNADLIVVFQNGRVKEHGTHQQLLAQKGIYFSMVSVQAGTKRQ
MATE2-K, sequence (Q86VL8 1-566 isoform Q86VL8-3): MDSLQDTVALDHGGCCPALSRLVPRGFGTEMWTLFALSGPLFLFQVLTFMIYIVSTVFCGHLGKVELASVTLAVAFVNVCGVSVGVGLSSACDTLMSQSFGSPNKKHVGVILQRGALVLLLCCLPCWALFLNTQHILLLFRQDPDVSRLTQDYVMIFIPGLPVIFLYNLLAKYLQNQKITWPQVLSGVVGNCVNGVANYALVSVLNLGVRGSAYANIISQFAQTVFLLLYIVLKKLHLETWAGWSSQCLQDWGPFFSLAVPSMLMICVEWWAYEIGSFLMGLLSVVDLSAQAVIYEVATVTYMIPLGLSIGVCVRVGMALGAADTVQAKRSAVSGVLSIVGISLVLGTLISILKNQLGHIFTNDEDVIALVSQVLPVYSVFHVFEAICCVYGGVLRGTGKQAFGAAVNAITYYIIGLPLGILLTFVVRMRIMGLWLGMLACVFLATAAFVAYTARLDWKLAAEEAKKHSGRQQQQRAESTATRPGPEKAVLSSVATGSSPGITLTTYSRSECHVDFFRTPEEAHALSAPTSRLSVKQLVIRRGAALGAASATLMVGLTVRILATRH

CN/C(=N/CCSCc1nc[nH]c1C)NC#N [Cimetidine]
Uptake (Average ± SD), Control (MATE1; 10 μM): 5.20 ± 0.63 pmol/mg protein
Uptake (Average ± SD), MATE1 (MATE1; 10 μM): 85.2 ± 7.8 pmol/mg protein
Uptake (Average ± SD), Control (MATE2-K; 300 μM): 7.34 ± 0.20 pmol/mg protein
Uptake (Average ± SD), MATE2-K (MATE2-K; 300 μM): 32.3 ± 11.7 pmol/mg protein

NS(=O)(=O)c1cc(Cl)c(Cl)c(S(N)(=O)=O)c1 [Dichlorphenamide, 4,5-dichloro-1,3-benzenedisulfonamide]
% control (OCT1; [14C]-tetraethylammonium bromide 5 μM, inhibitor 10 μM): 90.6%
Uptake (Average ± SD), Control (OCT1; 1 μM): 4.28 ± 1.48 pmol/mg protein
Uptake (Average ± SD), OCT1 (OCT1; 1 μM): 121 ± 11 pmol/mg protein
Uptake (Average ± SD), Control (OCT1; 3 μM): 4.44 ± 1.97 pmol/mg protein
Uptake (Average ± SD), OCT1 (OCT1; 3 μM): 125 ± 5 pmol/mg protein
Uptake (Average ± SD), Control (OCT1; 10 μM): 4.28 ± 0.92 pmol/mg protein
Uptake (Average ± SD), OCT1 (OCT1; 10 μM): 111 ± 4 pmol/mg protein
Uptake (Average ± SD), Control (OCT1; 30 μM): 3.88 ± 0.48 pmol/mg protein
Uptake (Average ± SD), OCT1 (OCT1; 30 μM): 122 ± 14 pmol/mg protein
Uptake (Average ± SD), Control (OCT1; 100 μM): 4.12 ± 0.73 pmol/mg protein
Uptake (Average ± SD), OCT1 (OCT1; 100 μM): 128 ± 6 pmol/mg protein
Background corrected uptake rate (OCT1; 300 μM): 8.40 pmol/mg/min
Uptake (Average ± SD), Control (OCT1; 300 μM): 3.88 ± 1.11 pmol/mg protein
Uptake (Average ± SD), OCT1 (OCT1; 300 μM): 130 ± 10 pmol/mg protein
Background corrected uptake rate (OCT1; 1000 μM): 5.00 pmol/mg/min
Uptake (Average ± SD), Control (OCT1; 1000 μM): 2.99 ± 1.46 pmol/mg protein
Uptake (Average ± SD), OCT1 (OCT1; 1000 μM): 77.9 ± 3.0 pmol/mg protein
Uptake (Average ± SD), Control (MATE1; 1 μM): 6.66 ± 1.31 pmol/mg protein
Uptake (Average ± SD), MATE1 (MATE1; 1 μM): 436 ± 23 pmol/mg protein
Uptake (Average ± SD), Control (MATE1; 3 μM): 6.75 ± 1.65 pmol/mg protein
Uptake (Average ± SD), MATE1 (MATE1; 3 μM): 401 ± 7 pmol/mg protein
Uptake (Average ± SD), Control (MATE1; 10 μM): 7.43 ± 1.34 pmol/mg protein
Uptake (Average ± SD), MATE1 (MATE1; 10 μM): 406 ± 12 pmol/mg protein
Uptake (Average ± SD), Control (MATE1; 30 μM): 6.79 ± 0.89 pmol/mg protein
Uptake (Average ± SD), MATE1 (MATE1; 30 μM): 432 ± 10 pmol/mg protein
Uptake (Average ± SD), Control (MATE1; 100 μM): 7.52 ± 0.96 pmol/mg protein
Uptake (Average ± SD), MATE1 (MATE1; 100 μM): 421 ± 17 pmol/mg protein
Uptake (Average ± SD), Control (MATE1; 300 μM): 5.56 ± 0.16 pmol/mg protein
Uptake (Average ± SD), MATE1 (MATE1; 300 μM): 398 ± 17 pmol/mg protein
Uptake (Average ± SD), Control (MATE1; 1000 μM): 5.52 ± 0.21 pmol/mg protein
Uptake (Average ± SD), MATE1 (MATE1; 1000 μM): 379 ± 13 pmol/mg protein
Uptake (Average ± SD), Control (MATE2-K; 1 μM): 9.21 ± 0.93 pmol/mg protein
Uptake (Average ± SD), MATE2-K (MATE2-K; 1 μM): 149 ± 29 pmol/mg protein
Uptake (Average ± SD), Control (MATE2-K; 3 μM): 9.44 ± 2.27 pmol/mg protein
Uptake (Average ± SD), MATE2-K (MATE2-K; 3 μM): 159 ± 19 pmol/mg protein
Uptake (Average ± SD), Control (MATE2-K; 10 μM): 8.28 ± 1.46 pmol/mg protein
Uptake (Average ± SD), MATE2-K (MATE2-K; 10 μM): 113 ± 8 pmol/mg protein
Uptake (Average ± SD), Control (MATE2-K; 30 μM): 8.51 ± 1.05 pmol/mg protein
Uptake (Average ± SD), MATE2-K (MATE2-K; 30 μM): 124 ± 36 pmol/mg protein
Uptake (Average ± SD), Control (MATE2-K; 100 μM): 9.21 ± 1.52 pmol/mg protein
Uptake (Average ± SD), MATE2-K (MATE2-K; 100 μM): 137 ± 15 pmol/mg protein
Uptake (Average ± SD), Control (MATE2-K; 300 μM): 8.86 ± 0.93 pmol/mg protein
Uptake (Average ± SD), MATE2-K (MATE2-K; 300 μM): 166 ± 16 pmol/mg protein
Uptake (Average ± SD), Control (MATE2-K; 1000 μM): 5.13 ± 0.40 pmol/mg protein
Uptake (Average ± SD), MATE2-K (MATE2-K; 1000 μM): 106 ± 29 pmol/mg protein
% control (BCRP; inhibitor 1000 μM): 60.0%
Control cells Recovery (%) A:B (BCRP; dog, MDCK, 120 min, 1000 μM): 84.7%
Control cells Recovery (%) B:A (BCRP; dog, MDCK, 120 min, 1000 μM): 77.0%
MDCKII-BCRP cells Recovery (%) A:B (BCRP; human, 120 min, 1000 μM): 93.0%
MDCKII-BCRP cells Recovery (%) B:A (BCRP; human, 120 min, 1000 μM): 83.7%
Storage stability [1]: at least 36 months
Papp A:B of digoxin (Average) (P-gp [2]; Caco-2): 0.337 (n = 2) × 10^−6 cm/sec
% control (P-gp [2]; human, 120 min, 3 μM): 74.0%
Solubility in dilute solutions of sodium carbonate and sodium hydroxide [3]: soluble

Cc1cccc(C)c1OCC(=O)N[C@@H](Cc1ccccc1)[C@@H](O)C[C@H](Cc1ccccc1)NC(=O)[C@H](C(C)C)N1CCCNC1=O [Lopinavir]
% control (BCRP; inhibitor 30 μM): 0%

CCc1nc(N)nc(N)c1-c1ccc(Cl)cc1 [Pyrimethamine]
Background corrected uptake rate (MATE1; 0.1 μM): 11.7 pmol/mg/min
Uptake (Average ± SD), Control (MATE1; 0.1 μM): 4.24 ± 0.72 pmol/mg protein
Uptake (Average ± SD), MATE1 (MATE1; 0.1 μM): 62.8 ± 4.0 pmol/mg protein
Background corrected uptake rate (MATE2-K; 0.3 μM): 14.0 pmol/mg/min
Uptake (Average ± SD), Control (MATE2-K; 0.3 μM): 5.59 ± 0.88 pmol/mg protein
Uptake (Average ± SD), MATE2-K (MATE2-K; 0.3 μM): 75.6 ± 16.7 pmol/mg protein

C=C[C@H]1C[N@@]2CC[C@H]1C[C@@H]2[C@@H](O)c1ccnc2ccc(OC)cc12 [Quinidine]
Background corrected uptake rate (OCT1; 100 μM): 1.64 pmol/mg/min

C/C=C/C[C@@H](C)C(=O)[C@H]1C(=O)N[C@@H](C(C)C)C(=O)N(C)CC(=O)N(C)[C@@H](CC(C)C)C(=O)N[C@@H](C(C)C)C(=O)N(C)[C@@H](CC(C)C)C(=O)N[C@@H](C)C(=O)N[C@H](C)C(=O)N(C)[C@@H](CC(C)C)C(=O)N(C)[C@@H](CC(C)C)C(=O)N(C)[C@@H](C(C)C)C(=O)N1C [Valspodar]
Papp A:B of digoxin (Average ± SD) (P-gp [4]): 9.12 ± 1.34 × 10^−6 cm/sec
Papp B:A of digoxin (Average ± SD) (P-gp [4]): 10.0 ± 2.5 × 10^−6 cm/sec
